Measurements from PubChem BioAssay (NCI).
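Growth conditions: 96-well plates. Treatment: test compound, 48 hours, 5 concentrations. Analysis: linear interpolation between bracketing concentrations; unreached endpoints set to highest concentration. Definition used: TGI = concentration required for complete inhibition of growth.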

test system: IGROV1 ovarian; test: inhibition of tumour cell growth, NCI panel, 48 h

Row | SMILES | TGI [µM]
1 | CCCN=C(N)NC#N | > 100
2 | Nc1ccc2c(c1)N(C(=O)c1cc3cc(NC(=O)c4cc5ccccc5o4)ccc3[nH]1)CC2CCl (centres undefined) | > 100
3 | O=c1[nH]c(=O)n(C2OC(CO)C(O)C2O)cc1NN=NCc1ccccc1 (centres undefined) | > 100
4 | CCCCC1=NNC(=O)C1 | > 100

test system: MDA-MB-231 breast; test: inhibition of tumour cell growth, NCI panel, 48 h

Row | SMILES | TGI [µM]
5 | O=C(NC(Cc1c[nH]c2ccccc12)C(=O)Nc1ccc(Br)cc1)OCc1ccccc1 (centres undefined) | 22.9
6 | CCOC(=O)C1=C(C)N(Cc2ccc(Cl)cc2Cl)C2(O)C=CC(=O)C3C(=O)N(c4ccccc4)C(=O)C132 (centres undefined) | 6.44
7 | COC(=O)c1cc2c3c(ccc2[nH]1)N(C(=O)c1cc2cc(OC)c(OC)c(OC)c2[nH]1)CC3CCl (centres undefined) | > 100
8 | Cc1cc2c(cc1Cl)SC(NS(=O)(=O)c1ccc(Cl)cc1)=NS2(=O)=O | > 100
9 | CS(=O)(=O)O[C@H]1CN2C[C@@H](O)[C@@H](O)[C@H]2[C@H]1CO | > 100
10 | C=C(CCC/C(C)=C/C=C/[C@]1(C)CCCc2ccoc21)CC(=O)O | > 100
11 | COC(=O)CCC1=CCC2(SC)C(=O)Nc3cccc1c32 (centres undefined) | > 100
12 | CCCCC1=NNC(=O)C1 | > 100

test system: MDA-N; test: inhibition of tumour cell growth, NCI panel, 48 h

Row | SMILES | TGI [µM]
13 | CC(C)C(=O)[C@@]1(C)SC[C@H]2CCN=C21 | > 100
14 | CCCCCCCCCC1(N=[N+]=[N-])C(=O)c2ccccc2N(C)C1=O (centres undefined) | 79.1
15 | CC(=O)c1cccc(NC(=O)C(=O)NNc2n[nH]c(=S)n2N)c1 | 3.8
16 | COC(=O)c1ccc(C(=O)NC(Cc2ccc(Oc3cc(CC(NC(=O)c4ccccc4C(=O)OC)C(=O)OC)ccc3OC)cc2)C(=O)OC)cc1 (centres undefined) | > 100
17 | CCCCc1c(N(C)C)c(OC(C)=O)c(-c2cn(C)c3ccccc23)oc1=O | 44.8
18 | Nc1ccc2c(c1)N(C(=O)c1cc3cc(NC(=O)c4cc5ccccc5o4)ccc3[nH]1)CC2CCl (centres undefined) | 0.512
19 | CCCCC1=NNC(=O)C1 | > 100

test system: NCI-H226 lung; test: inhibition of tumour cell growth, NCI panel, 48 h

Row | SMILES | TGI [µM]
20 | CC1(C)COC(c2cccnc2/C=N/O)=N1 | > 100
21 | CC(C)C(=O)[C@@]1(C)SC[C@H]2CCN=C21 | > 100
22 | O=C(NC(Cc1c[nH]c2ccccc12)C(=O)Nc1ccc(Br)cc1)OCc1ccccc1 (centres undefined) | 31.4
23 | CCOC(=O)C1(C#N)C(c2ccccc2)CC(O)(c2ccc(OC)cc2)C(C(=O)c2ccc(OC)cc2)C1c1ccccc1 (centres undefined) | > 100
24 | COc1ccc(C2C(Cl)C(=O)N2n2cnc3ccccc3c2=O)cc1 (centres undefined) | > 100
25 | Cc1cc(N)c(C)c2c1[nH]c1ccc(O)cc12 | > 100
26 | CCOC(=O)C1=C(C)N(Cc2ccc(Cl)cc2Cl)C2(O)C=CC(=O)C3C(=O)N(c4ccccc4)C(=O)C132 (centres undefined) | 3.09
27 | COC(=O)c1cc2c3c(ccc2[nH]1)N(C(=O)c1cc2cc(OC)c(OC)c(OC)c2[nH]1)CC3CCl (centres undefined) | > 75
28 | CC(=O)c1cccc(NC(=O)C(=O)NNc2n[nH]c(=S)n2N)c1 | 20.1
29 | COC(=O)c1ccc(C(=O)NC(Cc2ccc(Oc3cc(CC(NC(=O)c4ccccc4C(=O)OC)C(=O)OC)ccc3OC)cc2)C(=O)OC)cc1 (centres undefined) | > 100
30 | Cc1cc2c(cc1Cl)SC(NS(=O)(=O)c1ccc(Cl)cc1)=NS2(=O)=O | > 100
31 | COc1cc2cc3c4c(cc(OC)c(OC)c4c2cc1OC)CCN3C(=O)OCCN1CCNCC1 | 28.1
32 | O=c1[nH]c2c(nc1NC13CC4CC(CC(C4)C1)C3)c(=O)oc1ccccc12 | 85.6
33 | COc1cc(C(Cc2ccccc2)NC(C)=O)oc(=O)c1 (centres undefined) | > 100
34 | CS(=O)(=O)O[C@H]1CN2C[C@@H](O)[C@@H](O)[C@H]2[C@H]1CO | > 100
35 | C=C(CCC/C(C)=C/C=C/[C@]1(C)CCCc2ccoc21)CC(=O)O | > 100
36 | COC(=O)CCC1=CCC2(SC)C(=O)Nc3cccc1c32 (centres undefined) | > 100
37 | CCCCc1c(N(C)C)c(OC(C)=O)c(-c2cn(C)c3ccccc23)oc1=O | 36.8
38 | CCCN=C(N)NC#N | > 100
39 | Nc1ccc2c(c1)N(C(=O)c1cc3cc(NC(=O)c4cc5ccccc5o4)ccc3[nH]1)CC2CCl (centres undefined) | 0.329
40 | O=c1[nH]c(=O)n(C2OC(CO)C(O)C2O)cc1NN=NCc1ccccc1 (centres undefined) | > 100
41 | CCCCC1=NNC(=O)C1 | > 100

test system: OVCAR-3 ovarian; test: inhibition of tumour cell growth, NCI panel, 48 h

Row | SMILES | TGI [µM]
42 | CC1(C)COC(c2cccnc2/C=N/O)=N1 | > 100
43 | CC(C)C(=O)[C@@]1(C)SC[C@H]2CCN=C21 | > 100
44 | O=C(NC(Cc1c[nH]c2ccccc12)C(=O)Nc1ccc(Br)cc1)OCc1ccccc1 (centres undefined) | 36.6
45 | CCCCCCCCCC1(N=[N+]=[N-])C(=O)c2ccccc2N(C)C1=O (centres undefined) | 56.4
46 | CCOC(=O)C1(C#N)C(c2ccccc2)CC(O)(c2ccc(OC)cc2)C(C(=O)c2ccc(OC)cc2)C1c1ccccc1 (centres undefined) | > 100
47 | COc1ccc(C2C(Cl)C(=O)N2n2cnc3ccccc3c2=O)cc1 (centres undefined) | > 100
48 | Cc1cc(N)c(C)c2c1[nH]c1ccc(O)cc12 | > 100
49 | CCOC(=O)C1=C(C)N(Cc2ccc(Cl)cc2Cl)C2(O)C=CC(=O)C3C(=O)N(c4ccccc4)C(=O)C132 (centres undefined) | 3.44
50 | COC(=O)c1cc2c3c(ccc2[nH]1)N(C(=O)c1cc2cc(OC)c(OC)c(OC)c2[nH]1)CC3CCl (centres undefined) | > 100
51 | CC(=O)c1cccc(NC(=O)C(=O)NNc2n[nH]c(=S)n2N)c1 | 15.9
52 | COC(=O)c1ccc(C(=O)NC(Cc2ccc(Oc3cc(CC(NC(=O)c4ccccc4C(=O)OC)C(=O)OC)ccc3OC)cc2)C(=O)OC)cc1 (centres undefined) | > 100
53 | Cc1cc2c(cc1Cl)SC(NS(=O)(=O)c1ccc(Cl)cc1)=NS2(=O)=O | > 100
54 | COc1cc2cc3c4c(cc(OC)c(OC)c4c2cc1OC)CCN3C(=O)OCCN1CCNCC1 | 28.8
55 | O=c1[nH]c2c(nc1NC13CC4CC(CC(C4)C1)C3)c(=O)oc1ccccc12 | > 100
56 | COc1cc(C(Cc2ccccc2)NC(C)=O)oc(=O)c1 (centres undefined) | > 100
57 | CS(=O)(=O)O[C@H]1CN2C[C@@H](O)[C@@H](O)[C@H]2[C@H]1CO | > 100
58 | C=C(CCC/C(C)=C/C=C/[C@]1(C)CCCc2ccoc21)CC(=O)O | > 100
59 | COC(=O)CCC1=CCC2(SC)C(=O)Nc3cccc1c32 (centres undefined) | > 100
60 | CCCCc1c(N(C)C)c(OC(C)=O)c(-c2cn(C)c3ccccc23)oc1=O | 67.9
61 | CCCN=C(N)NC#N | > 100
62 | Nc1ccc2c(c1)N(C(=O)c1cc3cc(NC(=O)c4cc5ccccc5o4)ccc3[nH]1)CC2CCl (centres undefined) | 0.56
63 | O=c1[nH]c(=O)n(C2OC(CO)C(O)C2O)cc1NN=NCc1ccccc1 (centres undefined) | > 100
64 | CCCCC1=NNC(=O)C1 | > 100

test system: OVCAR-5 ovarian; test: inhibition of tumour cell growth, NCI panel, 48 h

Row | SMILES | TGI [µM]
65 | CC1(C)COC(c2cccnc2/C=N/O)=N1 | > 100
66 | CC(C)C(=O)[C@@]1(C)SC[C@H]2CCN=C21 | > 100
67 | O=C(NC(Cc1c[nH]c2ccccc12)C(=O)Nc1ccc(Br)cc1)OCc1ccccc1 (centres undefined) | 35.1
68 | CCCCCCCCCC1(N=[N+]=[N-])C(=O)c2ccccc2N(C)C1=O (centres undefined) | 82.9
69 | CCOC(=O)C1(C#N)C(c2ccccc2)CC(O)(c2ccc(OC)cc2)C(C(=O)c2ccc(OC)cc2)C1c1ccccc1 (centres undefined) | > 100
70 | COc1ccc(C2C(Cl)C(=O)N2n2cnc3ccccc3c2=O)cc1 (centres undefined) | > 100
71 | Cc1cc(N)c(C)c2c1[nH]c1ccc(O)cc12 | > 100
72 | CCOC(=O)C1=C(C)N(Cc2ccc(Cl)cc2Cl)C2(O)C=CC(=O)C3C(=O)N(c4ccccc4)C(=O)C132 (centres undefined) | 22.3
73 | COC(=O)c1cc2c3c(ccc2[nH]1)N(C(=O)c1cc2cc(OC)c(OC)c(OC)c2[nH]1)CC3CCl (centres undefined) | > 100
74 | CC(=O)c1cccc(NC(=O)C(=O)NNc2n[nH]c(=S)n2N)c1 | 33.1
75 | COC(=O)c1ccc(C(=O)NC(Cc2ccc(Oc3cc(CC(NC(=O)c4ccccc4C(=O)OC)C(=O)OC)ccc3OC)cc2)C(=O)OC)cc1 (centres undefined) | > 100
76 | Cc1cc2c(cc1Cl)SC(NS(=O)(=O)c1ccc(Cl)cc1)=NS2(=O)=O | > 100
77 | COc1cc2cc3c4c(cc(OC)c(OC)c4c2cc1OC)CCN3C(=O)OCCN1CCNCC1 | 31.9
78 | O=c1[nH]c2c(nc1NC13CC4CC(CC(C4)C1)C3)c(=O)oc1ccccc12 | > 100
79 | COc1cc(C(Cc2ccccc2)NC(C)=O)oc(=O)c1 (centres undefined) | > 100
80 | CS(=O)(=O)O[C@H]1CN2C[C@@H](O)[C@@H](O)[C@H]2[C@H]1CO | > 100
81 | C=C(CCC/C(C)=C/C=C/[C@]1(C)CCCc2ccoc21)CC(=O)O | > 100
82 | COC(=O)CCC1=CCC2(SC)C(=O)Nc3cccc1c32 (centres undefined) | > 100
83 | CCCCc1c(N(C)C)c(OC(C)=O)c(-c2cn(C)c3ccccc23)oc1=O | > 100
84 | CCCN=C(N)NC#N | > 100
85 | Nc1ccc2c(c1)N(C(=O)c1cc3cc(NC(=O)c4cc5ccccc5o4)ccc3[nH]1)CC2CCl (centres undefined) | > 38.3
86 | O=c1[nH]c(=O)n(C2OC(CO)C(O)C2O)cc1NN=NCc1ccccc1 (centres undefined) | > 100
87 | CCCCC1=NNC(=O)C1 | > 100

test system: OVCAR-8 ovarian; test: inhibition of tumour cell growth, NCI panel, 48 h

Row | SMILES | TGI [µM]
88 | CC1(C)COC(c2cccnc2/C=N/O)=N1 | > 100
89 | CC(C)C(=O)[C@@]1(C)SC[C@H]2CCN=C21 | > 100
